The results in this text go back to patent publication US6025375A, “4,5-diaryloxazole derivatives” (Fujisawa Pharmaceutical Co., Ltd., priority 1993, dated 2000).

The subject of assay [1] is human platelet aggregation induced by ADP. Description: Inhibition of human platelet aggregation induced by ADP. It counts as cell-based. As to conditions: 3.2 × 10^-7 M, platelet rich plasma, ADP 2.5 μM, mean ± S.E. On the procedure:
i) Inhibition of human platelet aggregation induced by ADP
Isomer C obtained in Example 2.
Human blood was obtained from healthy volunteers and mixed with 1/10 volume of 3.8% sodium citrate, pH 7.4. The citrate blood was centrifuged at 150×g for 10 minutes and the platelet rich plasma (PRP) was removed. The remaining blood was centrifuged for a further 10 minutes at 1500×g to prepare the platelet poor plasma (PPP), which was used as a reference for platelet aggregation. Aggregation studies were carried out using HEMATRACER 801 (NBS, Japan), a 8 channel aggregometer. 25 μl sample solution and 225 μl of PRP were mixed and stirred at 1000 rpm for 2 minutes at 37° C. Aggregation was induced by ADP solution at the final concentration of 2.5 μM.

For assay [2], the system named is mean arterial blood pressure. Briefly: Effect on mean arterial blood pressure in conscious rats. It counts as in vivo. Particulars: 3.2 mg/kg, orally, suspended in 0.5% methyl cellulose; conscious male Sprague-Dawley rats. On the procedure: ii) Effect on mean arterial blood pressure in conscious rats
Sodium [3-[[(1S)-2-(4,5-diphenyloxazol-2-yl)-2-cyclohexen-1-yl]methyl]phenoxy]acetate
Male Sprague-Dawley rats, aged 8-9 weeks, were anesthetized with diethyl ether and a polyethylene cannula filled with heparin solution was inserted into the femoral artery of the rats to measure mean blood pressure. Mean blood pressure was measured with a pressure transducer and recorded on a polygraph. Two hours after operation, the test compound suspended in 0.5% methyl cellulose was administered orally in a volume of 5 ml/kg. Oral hypotensive effect of the test compound was expressed as the maximal decrease (R max). Briefly, R max was expressed as maximal % change compared to mean blood pressure prior to the administration of the test compound.

In assay [1], `O=C(O)COc1cccc(CC2CCCCC2c2nc(-c3ccccc3)c(-c3ccccc3)o2)c1` (single isomer, unassigned) [Isomer C, cis- or trans-1-[(3-carboxymethoxyphenyl)methyl]-2-(4,5-diphenyloxazol-2-yl)cyclohexane] returned an inhibition at 0.32 µM of 100 ± 0.4%.

On to `O=C(O)COc1cccc(C[C@@H]2CCCC=C2c2nc(-c3ccccc3)c(-c3ccccc3)o2)c1` [(+)-Sodium [3-[[(1S)-2-(4,5-diphenyloxazol-2-yl)-2-cyclohexen-1-yl]methyl]phenoxy] acetate], for which the “R max (%): maximal % change (decrease) in mean blood pressure compared to that prior to administration” value in assay [2] was found to be 31.3%.
